Measurements as given in patent EP0781773A1, “NOVEL CARBAPENEM DERIVATIVE” (BANYU PHARMACEUTICAL CO., LTD., priority 1994, dated 1996).
≈ marks a conversion by molar mass, not a printed value. Where “and” joins values, the source holds several entries; their conditions need not be identical. Equal entries are not always repeated.

Key:
[1] = test system: ICR male mice; test: Acute toxicity in mice; format: in vivo; details: once into the tail vein, observed 5 days
Protocol: The compound of Example I-26 was used as a representative compound. The test compound was diluted with distilled water for injection so that the drug liquid concentration became 60.75 mg/ml, and administered once, in an administration rate of 10 to 20 µl/min, into the tail vein of each of 4-week-old ICR male mice, according to "Commentary on GLP Standard and Toxicity Test Method Guidline" (supervised by the Examination Section, Drug Secretariat, the Ministry of Welfare; Yakuji-Nippo Co.). The state of death and the general symptoms of mobility were observed over a period of 5 days after the administration.

[2] = test system: SD rats; test: Toxicity test on the central nervous system in rats; details: 200 µg/rat into the lateral ventricle, n=5, observed for 30 minutes
From the text: A chronic guide cannula was inserted into the right lateral ventricle of each of 7-week-old male SD rats (n=5), and fixed by a dental range.

[3] = test system: P.mirabilis MB4955; test: In vitro antibacterial activity, agar plate dilution method (MIC); format: cell-based; details: Proteus mirabilis, MH agar, inoculum 10^6CFU/ml, 37 °C, 16 hours, read-out: Minimum inhibitory Concentration (MIC)
Protocol: (§1) One platinum loopful (inoculum : 10^6CFU/ml) of each test microorganism cultured overnight in Mueller Hinton broth was inoculated into Mueller Hinton agars (MH agar). These media contained an antimicrobial agent in various concentrations. Each test microorganism was cultured at 37 °C for 16 hours, and then the minimum inhibitory concentration (MIC: µg/ml) was assayed. Accordingly, the minimum inhibitory concentrations of compounds of the invention were assayed.

[4] = test system: S.aureus MB4970; test: as above; format: cell-based; details: Staphylococcus aureus, MH agar, inoculum 10^6CFU/ml, 37 °C, 16 hours, read-out: Minimum inhibitory Concentration (MIC)
Protocol: as §1

[5] = test system: S.aureus BB5939; test: as above; format: cell-based; details: Staphylococcus aureus; S.aureus BB5939 (β-lactamase-producing bacterium); MH agar, inoculum 10^6CFU/ml, 37 °C, 16 hours; read-out: Minimum inhibitory Concentration (MIC)
Protocol: as §1

[6] = test system: S.aureus JS1; test: as above; format: cell-based; details: Staphylococcus aureus, MH agar, inoculum 10^6CFU/ml, 37 °C, 16 hours, read-out: Minimum inhibitory Concentration (MIC)
Protocol: as §1

[7] = test system: S.aureus CSa929; test: Agar plate dilution method (MIC), media supplemented with 2 % sodium chloride; format: cell-based; details: Staphylococcus aureus, 35 °C, 48 hours, read-out: Minimum inhibitory Concentration (MIC)
Protocol: (§2) One platinum loopful (inoculum : 10^6CFU/ml) of each test microorganism cultured overnight in Mueller Hinton broth was inoculated into Mueller Hinton agars (MH agar). These media contained an antimicrobial agent in various concentrations. […] Accordingly, the minimum inhibitory concentrations of compounds of the invention were assayed. Table 1 The minimum inhibitory concentrations (MIC: µg/ml) of compounds of the invention were assayed according to the above agar plate dilution method using the media supplemented with 2 % sodium chloride as test media and using the culture conditions of 35 °C and 48 hours.

[8] = test system: S.aureus MB5393; test: as above; format: cell-based; details: Staphylococcus aureus, 35 °C, 48 hours, read-out: Minimum inhibitory Concentration (MIC)
Protocol: as §2

[9] = test system: white rabbits; test: Renal toxicity test using white rabbits; format: in vivo; details: for Blood urea nitrogen before administration / Creatinine before administration: just before the administration (baseline)
Protocol: The compound of Example I-72 was made into a liquid with sterilized distilled water for injection so that the drug liquid concentration became 10 %, and intraperitoneally administered once in a dose of 225 mg/kg into 18-week-old male white rabbits from Japan (n=3 per each group). As for a control group, 0.9 % physiological saline was intraperitoneally administered once in the same manner as above. Serum urea nitrogen and creatinine were assayed just before the administration and about 48 hours after the administration. After the blood drawing, each rabbit was killed with leaving them alone under anesthetization and roughly observed, and then autopsy was carried out only on the kidney fixed with neutral 10 % formalin buffer. Each kidney preparation was prepared by a usual method, stained with hematoxylin and eosin and observed by a microscope.

[10] = Mean, n=3, about 48 hours after 225 mg/kg intraperitoneally once
[11] = individual rabbit, about 48 hours after 225 mg/kg intraperitoneally once
[12] = individual rabbit, 225 mg/kg intraperitoneally once, 225 mg/kg

Structure (SMILES)	MIC [3] [µg/mL]	MIC [4] [µg/mL]	MIC [5] [µg/mL]	MIC [6] [µg/mL]	other results
C[C@@H](O)[C@H]1C(=O)N2C(C(=O)O)=C(SC(=S)N3CCCC(O)CC3)[C@H](C)[C@H]12 (stereo partly drawn) [Example I-26]	0.05 (≈ 0.125 µM)	0.012 (≈ 0.03 µM)	0.78 (≈ 1.95 µM)	0.2 (≈ 0.499 µM)	General symptoms of mobility ([1]; 1000 mg/kg): No abnomality; Surviving number ([1]; 1000 mg/kg): 2/2; General symptoms of mobility ([1]; 1500 mg/kg): No abnomality; Surviving number ([1]; 1500 mg/kg): 2/2; General symptoms of mobility ([1]; 2000 mg/kg): No abnomality; Surviving number ([1]; 2000 mg/kg): 1/1; Case of death [2]: 0/5
CNCC(=O)N1CCN(C(=S)SC2=C(C(=O)O)N3C(=O)[C@H]([C@@H](C)O)[C@H]3[C@H]2C)CC1 [Example I-41]	0.1 (≈ 0.226 µM)	≤ 0.006	0.39 (≈ 0.881 µM)	0.1 (≈ 0.226 µM)	
C[C@@H](O)[C@H]1C(=O)N2C(C(=O)O)=C(SC(=S)N3CCc4ccccc43)[C@H](C)[C@H]12 [Example I-51]					MIC [7]: 0.39 µg/mL (≈ 0.964 µM); MIC [8]: 0.39 µg/mL (≈ 0.964 µM)
C[C@@H](O)[C@H]1C(=O)N2C(C(=O)O)=C(SC(=S)N(C)C)[C@H](C)[C@H]12 [Example I-63]	0.1 (≈ 0.303 µM)	25 (≈ 75.7 µM)	1.56 (≈ 4.72 µM)	0.2 (≈ 0.605 µM)	
C[C@@H](O)[C@H]1C(=O)N2C(C(=O)O)=C(SC(=S)N(C)CCO)[C@H](C)[C@H]12 [Example I-72]	0.05 (≈ 0.139 µM)	0.025 (≈ 0.0694 µM)	1.56 (≈ 4.33 µM)	0.1 (≈ 0.277 µM)	Blood urea nitrogen after administration [9, 10]: 18.1 mg/dL; Creatinine after administration [9, 10]: 1.4 mg/dL; Blood urea nitrogen before administration ([9]; Mean, n=3): 17.4 mg/dL; Creatinine before administration ([9]; Mean, n=3): 1.3 mg/dL; Blood urea nitrogen after administration [9, 11]: 16.8 mg/dL and 16.6 mg/dL and 20.8 mg/dL; Creatinine after administration [9, 11]: 1.3 mg/dl (2×) and 1.5 mg/dl; Blood urea nitrogen before administration [9, 12]: 15.8 mg/dL and 16.8 mg/dL and 19.6 mg/dL; Creatinine before administration [9, 12]: 1.2 mg/dL and 1.3 mg/dL and 1.4 mg/dL; Opinion based on the autopsy ([9]; individual rabbit, kidney, about 48 hours after 225 mg/kg intraperitoneally once): no abnormality
C[C@@H](O)[C@H]1C(=O)N2C(C(=O)O)=C(SC(=S)N3Cc4ccc(C[N+]56CC[N+](CC(N)=O)(CC5)CC6)cc4C3)[C@H](C)[C@H]12 [Example III-2]	0.2	≤ 0.006	0.39	0.1	
C[C@@H](O)[C@H]1C(=O)N2C(C(=O)O)=C(SC(=S)N3CC=C(CN)CC3)[C@H](C)[C@H]12 [Example IV-5]	0.05 (≈ 0.126 µM)	≤ 0.006	0.39 (≈ 0.981 µM)	0.1 (≈ 0.252 µM)	
